In US9718824B2, “Solid forms comprising 7-(6-(2-hydroxypropan-2-yl)pyridin-3-yl)-1-((trans)-4-methoxycyclohexyl)-3,4-dihydropyrazino[2,3-b]pyrazin-2(1H)-one, and a coformer, compositions and methods of use thereof” (Signal Pharmaceuticals, LLC, priority 2014, dated 2017):

Experiment: Physical stability under accelerated ageing conditions, re-analysis by XRPD and digital imaging
Format: physicochemical
Conditions: 40° C. and 75% RH, 48 hours
Description: AAC: Accelerated aging conditions (48 hours at 40° C. and 75% RH)
Physical stability of all samples was studied by exposing all solids to accelerated ageing conditions (40° C./75% RH for 48 hours) followed by re-analysis by XRPD and digital imaging. After exposure to accelerated ageing conditions, all solids were re-classified on the basis of their new XRPD patterns. The assignment of solid forms was primarily based on the XRPD analysis.
Subsequently, all solids were placed in a climate chamber at 40° C. and 75% RH for […] and again analyzed by XRPD and digital imaging.
Compound 1 free base was solid dosed in 1.8 mL scale experimental vials. The coformer was added at a ratio of 1:1.1 (Compound 1:coformer). The solvent and a stirring bar were added to the vials. […] After the solids were separated from the liquids, the solids were analyzed wet by XRPD and digital imaging. […] The solids obtained were then analyzed by XRPD and digital imaging. Subsequently, the solids were incubated in a climate chamber at 40° C. and 75% RH for 48 hours and again analyzed by XRPD and digital imaging.
In these experiments 4 coformers and 6 solvents were tested (see Table 10). […] All obtained solids were then analyzed by XRPD and digital imaging. Subsequently, the solids were placed in a climate chamber at 40° C. and 75% RH for 3 days after which they were analyzed by XRPD and digital imaging again. […]

For COC1CCC(N2C(=O)CNc3ncc(-c4ccc(C(C)(C)O)nc4)nc32)CC1.O=C(O)C=CC(=O)O (stereo not shown) [Form 1], the “Physical stability at accelerated aging conditions (solid form by XRPD)” value was “stable”.
